Measured values from patent publication US7960129B2, “Assays and methods for determining STIM2 activity” (The Queen's Medical Center, priority 2007, dated 2011).
pIC50: −log10 of the molar value. Like-named read-outs stand apart in the source and are kept apart here. One block for each molecule: values may come before it.

Experiments:
CRAC currents = details: cited from earlier work; for doses that inhibit CRAC currents: high doses
[1] = target: T1, STIM2+CRACM1-expressing HEK293 cells (Homo sapiens, UniProt Q9P246); experiment: Whole-cell patch-clamp of CRAC currents in STIM2+CRACM1 cells; format: cell-based; details: for suppression of the secondary phase of CRAC current: added to pipette solution: ATP 3 mM, GTP 0.3 mM, calmodulin 100 μM, [Ca2+]i 150 nM
T1 construct: expressed in transfected cells; host or cells: HEK293
T1 sequence (Q9P246 15-746): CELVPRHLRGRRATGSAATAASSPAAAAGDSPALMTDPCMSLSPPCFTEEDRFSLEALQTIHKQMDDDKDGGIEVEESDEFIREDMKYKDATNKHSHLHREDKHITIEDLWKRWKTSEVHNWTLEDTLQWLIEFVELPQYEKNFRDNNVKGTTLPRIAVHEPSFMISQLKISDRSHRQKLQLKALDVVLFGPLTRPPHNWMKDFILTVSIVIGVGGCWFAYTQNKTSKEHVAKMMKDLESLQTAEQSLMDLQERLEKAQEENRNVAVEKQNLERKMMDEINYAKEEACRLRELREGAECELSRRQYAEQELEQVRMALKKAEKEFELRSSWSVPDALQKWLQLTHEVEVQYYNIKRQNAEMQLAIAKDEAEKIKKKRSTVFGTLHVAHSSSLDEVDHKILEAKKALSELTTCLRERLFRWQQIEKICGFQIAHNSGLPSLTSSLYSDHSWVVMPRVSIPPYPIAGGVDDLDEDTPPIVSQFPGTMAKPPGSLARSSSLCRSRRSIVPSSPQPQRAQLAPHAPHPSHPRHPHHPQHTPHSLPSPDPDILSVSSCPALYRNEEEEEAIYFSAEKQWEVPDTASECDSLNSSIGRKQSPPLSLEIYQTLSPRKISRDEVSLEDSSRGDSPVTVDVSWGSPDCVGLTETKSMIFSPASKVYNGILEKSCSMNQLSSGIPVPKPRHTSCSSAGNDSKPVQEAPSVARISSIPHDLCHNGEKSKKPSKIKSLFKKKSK
Procedure: Patch-clamp experiments were performed in the tight-seal whole-cell configuration at 21-25° C. High-resolution current recordings were acquired using the EPC-9 (HEKA). Voltage ramps of 50 ms duration spanning a range of −100 to +100 mV were delivered from a holding potential of 0 mV at a rate of 0.5 Hz over a period of 100-700 sec. All voltages were corrected for a liquid junction potential of 10 mV (3 mV with Cl^− as main internal anion). Currents were filtered at 2.9 kHz and digitized at 100 μs intervals. Capacitive currents were determined and corrected before each voltage ramp. Extracting the current amplitude at −80 mV from individual ramp current records assessed the low-resolution temporal development of currents. Where applicable, statistical errors of averaged data are given as means±S.E.M. with n determinations. Standard external solutions were as follows (in mM): 120 NaCl, 10 CsCl, 2.8 KCl, 2 MgCl2, 10 CaCl2, 10 TEA-Cl, 10 HEPES, 10 glucose, pH 7.2 with NaOH, 300 mOsm. In some experiments, 2 μM or 50 μM 2-aminoethyldiphenyl borate (2-APB) or 10 μM G418 were added to the standard external solution and applied through wide-tipped puffer pipettes. Standard internal solutions were as follows (in mM): 120 Cs-glutamate, 8 NaCl, 10 Cs-BAPTA, 3 MgCl2, 10 HEPES, 0.02 IP3, pH 7.2 with CsOH, 300 mOsm. As indicated in the figure legends, for some experiments [Ca^2+]i was buffered to 150 nM by 20 mM Cs•BAPTA and 8 mM CaCl2 or 20 mM Cs•EGTA and 8.9 mM CaCl2. For passive-depletion experiments, the internal solution was supplemented with Cs•BAPTA in the absence of IP3 and Ca^2+. In some experiments, Cs-glutamate and Cs•BAPTA were equimolarly replaced by KCl and K•BAPTA. In others, G418, Na•ATP and Na•GTP or calmodulin were added to intracellular solutions as specified in the figure legends. All chemicals were purchased from Sigma-Aldrich Co.

[2] = target: T2, STIM1+CRACM1-expressing HEK293 cells (Homo sapiens, UniProt Q13586+Q96D31); experiment: Whole-cell patch-clamp of CRAC currents in STIM1+CRACM1 cells; format: cell-based; details: 50 μM 2-APB; no IP3, [Ca2+]i buffered to 150 nM
T2 construct: expressed in transfected cells; host or cells: HEK293
T2 sequence (Q13586 23-685): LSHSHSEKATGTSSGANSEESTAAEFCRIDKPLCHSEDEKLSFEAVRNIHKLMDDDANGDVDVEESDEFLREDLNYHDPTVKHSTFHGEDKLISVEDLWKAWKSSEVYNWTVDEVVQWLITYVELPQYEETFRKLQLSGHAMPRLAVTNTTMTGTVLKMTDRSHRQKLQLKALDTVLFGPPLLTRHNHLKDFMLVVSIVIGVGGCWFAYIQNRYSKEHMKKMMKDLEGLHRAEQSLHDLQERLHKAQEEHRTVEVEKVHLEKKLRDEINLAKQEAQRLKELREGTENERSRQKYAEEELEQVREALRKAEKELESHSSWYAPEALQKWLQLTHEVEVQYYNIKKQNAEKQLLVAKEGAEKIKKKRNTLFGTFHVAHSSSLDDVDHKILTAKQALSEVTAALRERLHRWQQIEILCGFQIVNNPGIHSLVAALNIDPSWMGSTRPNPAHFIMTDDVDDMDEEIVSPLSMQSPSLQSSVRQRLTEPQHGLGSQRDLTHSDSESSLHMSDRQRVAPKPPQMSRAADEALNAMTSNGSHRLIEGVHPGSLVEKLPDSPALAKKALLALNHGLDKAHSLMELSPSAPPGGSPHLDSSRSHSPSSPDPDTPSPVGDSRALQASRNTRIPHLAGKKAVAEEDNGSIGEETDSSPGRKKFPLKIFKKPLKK
T2 sequence (Q96D31 whole entry): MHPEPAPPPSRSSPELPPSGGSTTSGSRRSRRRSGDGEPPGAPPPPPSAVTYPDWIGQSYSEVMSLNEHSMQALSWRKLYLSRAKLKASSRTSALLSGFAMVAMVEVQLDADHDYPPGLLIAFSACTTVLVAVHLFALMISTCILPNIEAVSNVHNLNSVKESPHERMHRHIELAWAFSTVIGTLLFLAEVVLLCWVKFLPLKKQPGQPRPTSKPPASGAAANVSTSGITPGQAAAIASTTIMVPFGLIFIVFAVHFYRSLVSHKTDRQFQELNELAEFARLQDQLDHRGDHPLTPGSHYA
Procedure: Patch-clamp experiments were performed in the tight-seal whole-cell configuration at 21-25° C. High-resolution current recordings were acquired using the EPC-9 (HEKA). […] Currents were filtered at 2.9 kHz and digitized at 100 μs intervals. Capacitive currents were determined and corrected before each voltage ramp. Extracting the current amplitude at −80 mV from individual ramp current records assessed the low-resolution temporal development of currents. […] All chemicals were purchased from Sigma-Aldrich Co.

Molecule: NCCOB(c1ccccc1)c1ccccc1 [2-APB, 2-aminoethoxydiphenyl borate]
doses that inhibit CRAC currents (CRAC currents; unit as printed in b55): ≥ 10 mM
doses that inhibit CRAC currents (CRAC currents): ≥ 0.01 mM
doses with facilitatory effects on CRAC currents (CRAC currents; low doses): ≤ 5 µM
CRAC currents activated by 2-APB ([1]; 50 μM 2-APB, stores depleted by IP3 or kept full ([Ca2+]i 150 nM), cells grown without G418): large, transient CRAC currents
CRACM1 currents induced by external application of 2-APB ([1]; 2 mM 2-APB as printed, cells grown in G418, no IP3-induced current): large CRACM1 currents
activation time of 2-APB-induced current ([1]; high-resolution recording at fixed membrane potential): within a few seconds
effect of 2-APB on G418-mediated suppression of CRAC currents ([1]; regardless of the filling state of stores): capable of overcoming the G418-mediated suppression
2-APB-induced current without store depletion [2]: not observed

Molecule: CN[C@@H]1[C@@H](O)[C@@H](O[C@@H]2[C@@H](O)[C@H](O[C@H]3O[C@H]([C@@H](C)O)[C@@H](O)[C@H](O)[C@H]3N)[C@@H](N)C[C@H]2N)OC[C@]1(C)O [G418]
pIC50 [1]: 6.28
pIC50 ([1]; half-maximal inhibitory concentration for IP3-induced CRACM1 currents, cells perfused with G418, both phases of the current): 6.30

Next, values leading:

suppression of the secondary phase of CRAC current [1]: failed to suppress
Molecule: Nc1ncnc2c1ncn2[C@@H]1O[C@H](COP(=O)(O)OP(=O)(O)OP(=O)(O)O)[C@@H](O)[C@H]1O [ATP]

suppression of the secondary phase of CRAC current [1]: failed to suppress
Molecule: Nc1nc2c(ncn2[C@@H]2O[C@H](COP(=O)(O)OP(=O)(O)OP(=O)(O)O)[C@@H](O)[C@H]2O)c(=O)[nH]1 [GTP]

suppression of the secondary phase of CRAC current [1]: secondary phase was observed
Molecule: calmodulin
